Structures can show the parent of a compound that is named as a salt. Marks after values point to notes of the source that are not given here.
Test system: female rats
Experiment: Plasma metabolite profiling (GC-MS, LC-MS, SPE-LC-MS) in female rats dosed once daily over 28 days (OECD 407)
Assay type: in vivo, rat
Set-up: key to 5-O-Methylsphingosine (d18:1) / Isopalmitic acid (C16:0) / Valine / Alanine / Ketoleucine / Serine / Lactate / Arginine: ratio of treated group mean to untreated control mean
Details: for 3-O-Methylsphingosine (d18:1), ratio versus control / 5-O-Methylsphingosine (d18:1), ratio versus control / 16-Methylheptadecanoic acid, ratio versus control / 17-Methyloctadecanoic acid, ratio versus control / Arachidonic acid (C20:cis[5,8,11,14]4), ratio versus control / Behenic acid (C22:0), ratio versus control / Cholesterol, ratio versus control / Choline plasmalogen No 03, ratio versus control / Docosahexaenoic acid (C22:cis[4,7,10,13,16,19]6), ratio versus control / Galactose, lipid fraction, ratio versus control / Lignoceric acid (C24:0), ratio versus control / Lysophosphatidylcholine (C17:0), ratio versus control / Malate, ratio versus control / Nervonic acid (C24:cis[15]1), ratio versus control / Sphingomyelin (d18:2, C16:0), ratio versus control / Stearic acid (C18:0), ratio versus control / Tricosanoic acid (C23:0), ratio versus control / Uric acid, ratio versus control / alpha-Tocopherol, ratio versus control / erythro-Sphingosine (d18:1), ratio versus control / myo-Inositol, lipid fraction, ratio versus control / myo-Inositol-2-phosphate, lipid fraction, ratio versus control / threo-Sphingosine (d18:1), ratio versus control: female rats, plasma, low dose; for Alanine / Arginine / Ketoleucine / Lactate / Proline / Serine / Valine: Table 17b
Method: Each dose group in the studies consisted of five rats per sex. Additional groups of each 5 male and female animals served as controls. […] All animals of the animal population were kept under the same constant temperature (20-24±3° C.) and the same constant humidity (30-70%). The animals of the animal population were fed ad libitum. The food to be used was essentially free of chemical or microbial contaminants. Drinking water was also offered ad libitum. Accordingly, the water was free of chemical and microbial contaminants as laid down in the European Drinking Water Directive 98/83/EG. The illumination period was 12 hours light followed by 12 hours darkness (12 hours light, from 6:00 to 18:00, and 12 hours darkness, from 18:00 to 6:00). […] The test substances (compounds) in the Tables 1 to 17 below were dosed and administered as described in the Table 18.
In the morning of day 7, 14, and 28, blood was taken from the retroorbital venous plexus from fasted anaesthetized animals. From each animal, 1 ml of blood was collected with EDTA as anticoagulant. The samples were centrifuged for generation of plasma. All plasma samples were covered with a N2 atmosphere and then stored at −80° C. until analysis.
For mass spectrometry-based metabolite profiling analyses plasma samples were extracted and a polar and a non-polar (lipid) fraction was obtained. For GC-MS analysis, the non-polar fraction was treated with methanol under acidic conditions to yield the fatty acid methyl esters. Both fractions were further derivatised with O-methyl-hydroxyamine hydrochloride and pyridine to convert Oxogroups to O-methyloximes and subsequently with a silylating agent before analysis. In LC-MS analysis, both fractions were reconstituted in appropriate solvent mixtures. HPLC was performed by gradient elution on reversed phase separation columns. Mass spectrometric detection which allows target and high sensitivity MRM (Multiple Reaction Monitoring) profiling in parallel to a full screen analysis was applied as described in WO2003073464.
Steroids and their metabolites were measured by online SPE-LC-MS (Solid phase extraction-LC-MS).
Following comprehensive analytical validation steps, the data for each analyte were normalized against data from pool samples. These samples were run in parallel through the whole process to account for process variability. The significance of treatment group values specific for sex, treatmentduration and metabolite was determined by comparing means of the treated groups to the means of the respective untreated control groups using WELCH-test and quantified with treatment ratios versus control and p-values.
The identification of the most important biomarkers per toxicity pattern was done by a ranking of the analytes in the tables below. Therefore the metabolic changes in reference treatments of a given pattern (shown in the table) were compared with changes of the same metabolite in other unrelated treatments. […] The maximum absolute value of the respective TVALUE was taken to indicate the most important metabolite for the pattern.

[1] = f7, female rats, high dose, Table 17a
[2] = f28, female rats, high dose, Table 17a

O=c1c(-c2ccc(O)cc2)coc2cc(O)cc(O)c12 [Genistein]
3-O-Methylsphingosine (d18:1), ratio versus control (day 7): 0.25 *
5-O-Methylsphingosine (d18:1), ratio versus control (day 7): 0.27 *
16-Methylheptadecanoic acid, ratio versus control (day 7): 0.64 *
17-Methyloctadecanoic acid, ratio versus control (day 7): 0.7 *
Arachidonic acid (C20:cis[5,8,11,14]4), ratio versus control (day 7): 0.59 *
Behenic acid (C22:0), ratio versus control (day 7): 0.45 *
Cholesterol, ratio versus control (day 7): 0.55 *
Choline plasmalogen No 03, ratio versus control (day 7): 0.74 *
Docosahexaenoic acid (C22:cis[4,7,10,13,16,19]6), ratio versus control (day 7): 0.52 *
Galactose, lipid fraction, ratio versus control (day 7): 0.51 *
Lignoceric acid (C24:0), ratio versus control (day 7): 0.45 *
Lysophosphatidylcholine (C17:0), ratio versus control (day 7): 0.8 *
Malate, ratio versus control (day 7): 0.98 *
Nervonic acid (C24:cis[15]1), ratio versus control (day 7): 0.45 *
Sphingomyelin (d18:2, C16:0), ratio versus control (day 7): 0.55 *
Stearic acid (C18:0), ratio versus control (day 7): 0.63 *
Tricosanoic acid (C23:0), ratio versus control (day 7): 0.32 *
Uric acid, ratio versus control (day 7): 0.73 *
alpha-Tocopherol, ratio versus control (day 7): 0.5 *
erythro-Sphingosine (d18:1), ratio versus control (day 7): 0.29 *
myo-Inositol, lipid fraction, ratio versus control (day 7): 0.62 *
myo-Inositol-2-phosphate, lipid fraction, ratio versus control (day 7): 0.48 *
threo-Sphingosine (d18:1), ratio versus control (day 7): 0.33 *
3-O-Methylsphingosine (d18:1), ratio versus control (day 14): 0.55 *
5-O-Methylsphingosine (d18:1), ratio versus control (day 14): 0.58 *
16-Methylheptadecanoic acid, ratio versus control (day 14): 0.72 *
17-Methyloctadecanoic acid, ratio versus control (day 14): 0.73 *
Arachidonic acid (C20:cis[5,8,11,14]4), ratio versus control (day 14): 0.66 *
Behenic acid (C22:0), ratio versus control (day 14): 0.52 *
Cholesterol, ratio versus control (day 14): 0.66 *
Choline plasmalogen No 03, ratio versus control (day 14): 0.8 *
Docosahexaenoic acid (C22:cis[4,7,10,13,16,19]6), ratio versus control (day 14): 0.71 *
Galactose, lipid fraction, ratio versus control (day 14): 0.66 *
Lignoceric acid (C24:0), ratio versus control (day 14): 0.53 *
Lysophosphatidylcholine (C17:0), ratio versus control (day 14): 0.9 *
Malate, ratio versus control (day 14): 0.75 *
Nervonic acid (C24:cis[15]1), ratio versus control (day 14): 0.7 *
Sphingomyelin (d18:2, C16:0), ratio versus control (day 14): 0.74 *
Stearic acid (C18:0), ratio versus control (day 14): 0.83 *
Tricosanoic acid (C23:0), ratio versus control (day 14): 0.65 *
Uric acid, ratio versus control (day 14): 0.72 *
alpha-Tocopherol, ratio versus control (day 14): 0.65 *
erythro-Sphingosine (d18:1), ratio versus control (day 14): 0.61 *
myo-Inositol, lipid fraction, ratio versus control (day 14): 0.76 *
myo-Inositol-2-phosphate, lipid fraction, ratio versus control (day 14): 0.66^
threo-Sphingosine (d18:1), ratio versus control (day 14): 0.65 *
3-O-Methylsphingosine (d18:1), ratio versus control (day 28): 0.44 *
5-O-Methylsphingosine (d18:1), ratio versus control (day 28): 0.47 *
16-Methylheptadecanoic acid, ratio versus control (day 28): 0.69 *
17-Methyloctadecanoic acid, ratio versus control (day 28): 0.86 *
Arachidonic acid (C20:cis[5,8,11,14]4), ratio versus control (day 28): 0.46 *
Behenic acid (C22:0), ratio versus control (day 28): 0.57 *
Cholesterol, ratio versus control (day 28): 0.43 *
Choline plasmalogen No 03, ratio versus control (day 28): 0.57 *
Docosahexaenoic acid (C22:cis[4,7,10,13,16,19]6), ratio versus control (day 28): 0.43 *
Galactose, lipid fraction, ratio versus control (day 28): 0.62 *
Lignoceric acid (C24:0), ratio versus control (day 28): 0.44 *
Lysophosphatidylcholine (C17:0), ratio versus control (day 28): 0.81 *
Malate, ratio versus control (day 28): 0.66 *
Nervonic acid (C24:cis[15]1), ratio versus control (day 28): 0.43 *
Sphingomyelin (d18:2, C16:0), ratio versus control (day 28): 0.62 *
Stearic acid (C18:0), ratio versus control (day 28): 0.66 *
Tricosanoic acid (C23:0), ratio versus control (day 28): 0.42 *
Uric acid, ratio versus control (day 28): 0.57 *
alpha-Tocopherol, ratio versus control (day 28): 0.46 *
erythro-Sphingosine (d18:1), ratio versus control (day 28): 0.51 *
myo-Inositol, lipid fraction, ratio versus control (day 28): 0.75 *
myo-Inositol-2-phosphate, lipid fraction, ratio versus control (day 28): 0.54 *
threo-Sphingosine (d18:1), ratio versus control (day 28): 0.57 *

CN(N=O)C(=O)N[C@H]1C(O)O[C@H](CO)[C@@H](O)[C@@H]1O (mixture of isomers) [Streptozotocin]
Isopalmitic acid (C16:0) [1]: 0.99
Alanine (f7, female rats, high dose): 0.79
Arginine (f7, female rats, high dose): 0.78
Ketoleucine (f7, female rats, high dose): 0.85
Lactate (f7, female rats, high dose): 0.77
Proline (f7, female rats, high dose): 0.81
Serine (f7, female rats, high dose): 0.88
Valine (f7, female rats, high dose): 0.77
Isopalmitic acid (C16:0) (f14, female rats, high dose, Table 17a): 1.12 *
Alanine (f14, female rats, high dose): 0.91
Arginine (f14, female rats, high dose): 0.88
Ketoleucine (f14, female rats, high dose): 0.9
Lactate (f14, female rats, high dose): 0.83
Proline (f14, female rats, high dose): 0.83
Serine (f14, female rats, high dose): 0.83
Valine (f14, female rats, high dose): 0.85
Isopalmitic acid (C16:0) [2]: 1.3 *
Alanine (f28, female rats, high dose): 0.87
Arginine (f28, female rats, high dose): 1.03
Ketoleucine (f28, female rats, high dose): 0.87
Lactate (f28, female rats, high dose): 0.57
Proline (f28, female rats, high dose): 0.9
Serine (f28, female rats, high dose): 0.98
Valine (f28, female rats, high dose): 0.98

CN(CCOc1ccc(CC2SC(=O)NC2=O)cc1)c1ccccn1 (stereo not drawn) [Rosiglitazone maleate]
Isopalmitic acid (C16:0) [1]: 1.46 *
Alanine (f7, female rats, high dose): 0.83
Arginine (f7, female rats, high dose): 0.85
Ketoleucine (f7, female rats, high dose): 0.72
Lactate (f7, female rats, high dose): 0.56
Proline (f7, female rats, high dose): 0.91
Serine (f7, female rats, high dose): 1
Valine (f7, female rats, high dose): 0.92
Alanine (f14, female rats, high dose): 0.81
Arginine (f14, female rats, high dose): 0.73
Ketoleucine (f14, female rats, high dose): 0.71
Lactate (f14, female rats, high dose): 1.24
Proline (f14, female rats, high dose): 0.81
Serine (f14, female rats, high dose): 0.91
Valine (f14, female rats, high dose): 0.72
Isopalmitic acid (C16:0) [2]: 1.52 *
Alanine (f28, female rats, high dose): 0.92
Arginine (f28, female rats, high dose): 0.93
Ketoleucine (f28, female rats, high dose): 0.67
Lactate (f28, female rats, high dose): 0.65
Proline (f28, female rats, high dose): 1.03
Serine (f28, female rats, high dose): 1.06
Valine (f28, female rats, high dose): 0.98
Isopalmitic acid (C16:0) (rat, in vivo): 1.41 *
